Laboratory results as given in patent US20210267978A1, “NANOPARTICLE FORMULATIONS OF IKE AND METHODS OF USE THEREOF” (The Trustees of Columbia University in the City of New York, priority 2018, published 2021).

Columns and labels:
[1] = test system: SUDHL6 xenograft tumor tissue; experiment: Reduced glutathione measurement in mouse tumor tissue after one IKE dose; assay type: in vivo, NCG mice; settings: single dose IKE 50 mg/kg, starting at 4 hours
[2] = test system: SUDHL6 xenograft tumor tissue; experiment: qPCR in mouse tumor tissue after one IKE dose; assay type: in vivo, NCG mice; settings: single dose IKE 50 mg/kg, starting at 3 h
Method: NCG mice 6-weeks of age were injected with 10 million SUDHL-6 cells subcutaneously. Visible tumors appeared after 2 weeks. Tumor size was measured by electronic caliper every 2 days and calculated using the formula: 0.5×length×width^2. After another 2 weeks, mice were randomly separated into group of 3 mice per cage with roughly tumor size (1200 mm^3). Mice were dosed at 50 mg/kg IKE, 22 mg/kg IKE, 22 mg/kg IKE PEG-PLGA nanoparticles (equal to 600 mg/kg PEG-PLGA) using IP at one time and samples were collected at 0, 1, 2, 3, 4, 6, and 24 h with three mice per time point. Mice were dosed with Vehicle 1 and Vehicle 2 (600 mg/kg PEG-PLGA) by IP and samples were collected at 24 h. […] Plasma samples were collected and analyzed as described above. […] After drying, the samples were resuspended in 100 μL of methanol and analyzed on the LC-MS with each sample analyzed twice. […] The concentration of IKE in the sample was determined by comparison against a standard curve of IKE in the range of 25 to 2,500 ng/mL. […] Pharmacokinetics parameters of IKE were assessed using Prism fitted with Lognormal of one phase exponential decay. […]
To perform qPCR analysis in mouse tumor tissue, ˜20 mg of tumor tissue was prepared and kept on dry ice. […] RNA was reverse transcribed to cDNA then used in quantitative PCR experiment following the same steps used in cell qPCR experiment.

[3] = test system: SUDHL6 subcutaneous xenografts; experiment: IKE efficacy study, tumor volume; assay type: in vivo, NCG mice; settings: starting from day 9 of treatment
Method: IKE was dissolved in 5% DMSO/95% HBSS at pH 4 to create a 4 mg/mL solution. 5% DMSO/95% HBSS at pH 4 was used as vehicle 1. IKE PEG-PLGA nanoparticles and unfunctionalized PEG-PLGA nanoparticles (without IKE loading) (vehicle 2) prepared with a NanoAssemblr were dialyzed with deionized water overnight, the water was changed at least twice. Dialyzed IKE-PEG-PLGA nanoparticles and unfunctional PEG-PLGA nanoparticles were concentrated by Amicon Ultra-15 Centrifugal Filter Units to create a solution with 80 mg/mL PEG-PLGA nanoparticles. All above solutions were sterilized by filter through a 0.2 μm syringe filter.
NCG mice, 6-weeks old, were injected with 10 million SUDHLO-6 cells subcutaneously. […] Tumor volume was measured daily with electronic caliper and calculated using the formula: 0.5×length×width^2. […] Tumor volume change was analyzed in Prism using one-way ANOVA. Tumor tissues were analyzed as described in the RT-qPCR, immunofluorescence, TBARS, and lipidomics sections below.
We investigated the efficacy of IKE in vivo in male NCG mice bearing SUDHL6 subcutaneous xenografts. […] During the experimental period, mouse weight and tumor volume were measured daily to determine IKE's antitumor effect and possible toxicity. Tumor growth was calculated as the fold change relative to original tumor volume on day 0 before the first dose (FIG. 4C). […]

[4] = test system: SUDHL6 xenograft tumor tissue; experiment: Western blot of caspase-3 in tumor tissue from efficacy study; assay type: in vivo, NCG mice; settings: treatment for 14 days
Method: 10-25 mg tumor tissue was placed into a 1.5 mL Eppendorf microfuge tube, and the sample was placed on dry ice until use. 20 μL/mg ice cold RIPA buffer with cocktail protease inhibitor (Roche) was added. The tumor tissue was homogenized at speed 5 for 30 sec using Bead Ruptor 4. The sample was centrifuged at 4° C. at 1,600×g for 10 min. The sample was kept on ice and the supernatant used for analysis. Caspase-3 antibody which could recognize both full-length caspase-3 and cleaved caspase-3 was used. α-Tubulin antibody was used as the reference.

some cell lines = settings: cited from earlier work

CC(C)Oc1ccc(C(=O)Cn2ccnc2)cc1-n1c(CN2CCN(C(=O)COc3ccc(Cl)cc3)CC2)nc2ccccc2c1=O [IKE, Imidazole ketone erastin]
GSH depletion in tumor tissue [1]: over 50% | CHAC1 mRNA upregulation in tumor [2]: 2 fold | tumor growth (tumor volume fold change vs day 0) ([3]; 23 mg/kg i.p. once daily): significant decrease in tumor growth | tumor growth (tumor volume fold change vs day 0) ([3]; 40 mg/kg i.p. once daily): significant decrease in tumor growth | cleaved-caspase 3 in tumor tissue (western blot) [4]: no cleaved-caspase 3 increase | potency improvement compared with erastin (some cell lines): > 100 ×
